From patent publication US20230042729A1, “PEPTIDE CONSTRUCTS AND COMPOSITIONS” (DIET4LIFE APS, priority 2019, published 2023)
No end group written: not given here.

What was measured:
murine intestinal cells = murine intestinal cells (Mus musculus, UniProt O88319); assay: Ca2+ flux / calcium response assay (cell signaling activity); type: cell-based
Experimental: Ca^2+ Flux Assay/Calcium Response Assay:
Elevation of intracellular calcium level was measured using the fluorescent calcium chelating dye Fluo-4 AM (ThermoFischer Scientific, Denmark). Briefly, cells were grown as a monolayer in 96-well tissue culture plates (Sarstedt, Germany) to near confluence in appropriate growth medium as described in the cell culture section.
All test compounds were dissolved in water, and then diluted in 1×HBSS containing 25 mM HEPES (pH 7.4), 1% BSA and 2% ink. […]

[1] = Stability of peptides in serum, remaining activity read in intestinal cells; type: in vitro ADME, Bovine; settings: for Stability in serum (activity remaining): octapeptides, fraction of peptide activity left after 10 min of incubation in serum at 37° C. compared with undigested sample
Experimental: All peptides were incubated at 10^−5 M with Fetal Bovine Serum (FBS; final concentration of 66.7%) (Sigma Aldrich, Denmark) at 37° C. for 3 hours. The peptide degradation was terminated using 1 M phosphoric acid (final 0.4 M, pH˜1.2) and neutralized to pH 7.2-7.4 with NaOH before testing activity in intestinal cells. As for small intestine homogenates, a zero degradation control was included for each peptide.
DC7-2, NT, DKPYIL and NT-(8-13) (final concentration of 10^−6 M) were incubated either with FBS or with 270× diluted intestinal homogenate at 37° C. for various time points with shaking. Degradation was stopped with 1 M phosphoric acid and the samples were subsequently neutralized and immediately tested with intestinal cells as described above. Control for zero degradation was included for each peptide as above.
(§1) The 20 hexapeptides with systematic N-terminal substitutions (X-KPYIL) (Schafer-N, Denmark) and NT (8-13) was incubated at 10^−6 M in either FBS for 10 minutes or with 270× diluted intestinal homogenate for 30 minutes at 37° C. with shaking. The degradation was stopped with 1 M phosphoric acid. Peptide solutions were neutralized with NaOH (pH 7.2-7.4), diluted and immediately tested for bioactivity using murine intestinal cells. Determination of EC50 for stimulation of cells allowed calculation of recovered peptide.

[2] = Stability of peptides in intestine homogenate, remaining activity read in intestinal cells; type: in vitro ADME, mice; settings: for Stability in intestine (activity remaining): octapeptides, % activity left after 30 min incubation in intestine homogenate at 37° C.
Experimental: Small intestines from 20 Swiss-Webster males were homogenized in 350 ml Dulbecco's phosphate-buffered saline (PBS) (pH 7.4) (ThermoFischer Scientific, Denmark) with a IKA® basic 18 Ultra-Turrax tissue homogenizer set a speed 5 followed by filtration using 100 μm nylon mesh filter. Protein concentration was 6 mg/ml using the bicinconinic acid assay (ThermoFischer Scientific, Denmark) and bovine serum albumin as standard. The intestine homogenate was diluted 10 times in HBSS containing 25 mM HEPES (pH 7.4), and further diluted 30×, 90×, 270×, 810× or 2430× before incubation with peptides. All solutions were prewarmed to 37° C. before mixing with peptide solutions.
Peptides were incubated at 10^−5 M with dilutions of small intestine homogenate at 37° C. for 90 minutes with shaking. Reactions were stopped by addition of 1 M phosphoric acid (final 0.4 M, pH˜1.2). Each peptide incubation mix was then neutralized with NaOH to pH 7.2-7.4 and immediately tested for activity in intestinal cells. Control for zero degradation, i.e. addition of 1 M phosphoric acid prior to addition of intestine homogenate, was included for each peptide. […]
as §1

Chain of murine intestinal cells (O88319 whole entry): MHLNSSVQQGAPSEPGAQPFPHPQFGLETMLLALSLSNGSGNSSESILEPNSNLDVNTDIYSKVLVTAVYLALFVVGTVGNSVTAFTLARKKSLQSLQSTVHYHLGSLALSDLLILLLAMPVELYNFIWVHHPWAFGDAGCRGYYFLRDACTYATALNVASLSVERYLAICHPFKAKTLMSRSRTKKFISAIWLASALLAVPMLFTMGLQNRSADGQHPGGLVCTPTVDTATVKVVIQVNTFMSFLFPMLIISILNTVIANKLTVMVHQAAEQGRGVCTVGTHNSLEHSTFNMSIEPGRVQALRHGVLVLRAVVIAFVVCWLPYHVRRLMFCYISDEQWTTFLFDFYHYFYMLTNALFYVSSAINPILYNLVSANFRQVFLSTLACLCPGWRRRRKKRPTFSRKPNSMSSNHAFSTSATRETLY

Compound | EC50 (murine intestinal cells) [nM] | other results
CSDKPYIL [Peptide 36037, C SDKPYIL] | 5.44 | Stability in serum (activity remaining) [1]: 0.0963; Stability in intestine (activity remaining) [2]: 14.0%
HPYIL [Peptide 36002, H PYIL] | 35.6 | 
ESDKPYIL [Peptide 36039, E SDKPYIL] | 4.82 | Stability in serum (activity remaining) [1]: 0.0964; Stability in intestine (activity remaining) [2]: 23.0%
KPYIL [Peptide 36004, K PYIL] | 7.71 | 
VDKPYIL [Peptide 36033, V DKPYIL] | 4.94 | 
ADKPYIL [Peptide 36016, A DKPYIL] | 3.52 | 
LDKPYIL [Peptide 36025, L DKPYIL] | 6.41 | 
YSDKPYIL [Peptide 36055, Y SDKPYIL] | 5.92 | Stability in serum (activity remaining) [1]: 0.0491; Stability in intestine (activity remaining) [2]: 3.0%
LSDKPYIL [Peptide 36045, L SDKPYIL] | 8.06 | Stability in serum (activity remaining) [1]: 0.0917; Stability in intestine (activity remaining) [2]: 7.9%
FDKPYIL [Peptide 36020, F DKPYIL] | 9.52 | 
LKPYIL [Peptide 35985, L KPYIL] | 0.33 | 
VKPYIL [Peptide 35993, V KPYIL] | 1.17 | 
KDKPYIL [Peptide 36024, K DKPYIL] | 11.2 | 
PKPYIL [Peptide 35988, P KPYIL] | 0.232 | 
DSDKPYIL [Peptide 36038, D SDKPYIL] | 6.15 | Stability in serum (activity remaining) [1]: 0.0947; Stability in intestine (activity remaining) [2]: 29.9%
SKPYIL [Peptide 35991, S KPYIL] | 1.15 | 
MSDKPYIL [Peptide 36046, M SDKPYIL] | 4.88 | Stability in serum (activity remaining) [1]: 0.0762; Stability in intestine (activity remaining) [2]: 3.8%
CC[C@H](C)[C@H](NC(=O)[C@H](Cc1ccc(O)cc1)NC(=O)[C@@H]1CCCN1C(=O)[C@@H](N)CCCNC(=N)N)C(=O)N[C@@H](CC(C)C)C(=O)O [Peptide 36010, R PYIL] | 1.18 | 
SSDKPYIL [Peptide 36051, S SDKPYIL] | 4.27 | Stability in serum (activity remaining) [1]: 0.0609; Stability in intestine (activity remaining) [2]: 19.5%
KSDKPYIL [Peptide 36044, K SDKPYIL] | 10.7 | Stability in serum (activity remaining) [1]: 0.0527; Stability in intestine (activity remaining) [2]: 6.6%
QKPYIL [Peptide 35989, Q KPYIL] | 0.378 | 
GPYIL [Peptide 36001, G PYIL] | 17.4 | 
CPYIL [Peptide 35997, C PYIL] | 69.9 | 

Compound | EC50 (murine intestinal cells) [nM] | other results
ISDKPYIL [Peptide 36043, I SDKPYIL] | 6.87 | Stability in serum (activity remaining) [1]: 0.0956; Stability in intestine (activity remaining) [2]: 6.0%
SPYIL [Peptide 36011, S PYIL] | 22.5 | 
NKPYIL [Peptide 35987, N KPYIL] | 0.5 | 
QSDKPYIL [Peptide 36049, Q SDKPYIL] | 4.01 | Stability in serum (activity remaining) [1]: 0.0742; Stability in intestine (activity remaining) [2]: 8.8%
VSDKPYIL [Peptide 36053, V SDKPYIL] | 5.15 | Stability in serum (activity remaining) [1]: 0.0488; Stability in intestine (activity remaining) [2]: 5.6%
MKPYIL [Peptide 35986, M KPYIL] | 0.388 | 
RSDKPYIL [Peptide 36050, R SDKPYIL] | 4.01 | Stability in serum (activity remaining) [1]: 0.0735; Stability in intestine (activity remaining) [2]: 2.6%
YDKPYIL [Peptide 36035, Y DKPYIL] | 6.83 | 
MDKPYIL [Peptide 36026, M DKPYIL] | 6.08 | 
WSDKPYIL [Peptide 36054, W SDKPYIL] | 8.87 | Stability in serum (activity remaining) [1]: 0.0426; Stability in intestine (activity remaining) [2]: 3.6%
TSDKPYIL [Peptide 36052, T SDKPYIL] | 5.63 | Stability in serum (activity remaining) [1]: 0.0535; Stability in intestine (activity remaining) [2]: 8.4%
HDKPYIL [Peptide 36022, H DKPYIL] | 2.65 | 
EDKPYIL [Peptide 36019, E DKPYIL] | 3.96 | 
PDKPYIL [Peptide 36028, P DKPYIL] | 4.67 | 
DDKPYIL [Peptide 36018, D DKPYIL] | 10.5 | 
DPYIL [Peptide 35998, D PYIL] | 158 | 
GDKPYIL [Peptide 36021, G DKPYIL] | 2.91 | 
DKPYIL [Peptide 35978, D KPYIL] |  | stability in serum compared to neurotensin (8-13) RRPYIL [1]: around 100 times; stability in intestine homogenate compared to neurotensin (8-13) RRPYIL [2]: 100-1000 ×
IKPYIL [Peptide 35983, I KPYIL] | 0.24 | 
NPYIL [Peptide 36007, N PYIL] | 39.3 | 
FSDKPYIL [Peptide 36040, F SDKPYIL] | 3.85 | Stability in serum (activity remaining) [1]: 0.0944; Stability in intestine (activity remaining) [2]: 3.4%
LPYIL [Peptide 36005, L PYIL] | 41 | 
MPYIL [Peptide 36006, M PYIL] | 16.2 | 

Compound | EC50 (murine intestinal cells) [nM] | other results
TKPYIL [Peptide 35992, T KPYIL] | 1.16 | 
HSDKPYIL [Peptide 36042, H SDKPYIL] | 3.63 | Stability in serum (activity remaining) [1]: 0.0980; Stability in intestine (activity remaining) [2]: 6.4%
YKPYIL [Peptide 35995, Y KPYIL] | 3.34 | 
YPYIL [Peptide 36015, Y PYIL] | 140 | 
PSDKPYIL [Peptide 36048, P SDKPYIL] | 4.14 | Stability in serum (activity remaining) [1]: 0.0772; Stability in intestine (activity remaining) [2]: 4.6%
SDKPYIL [Peptide 36031, S DKPYIL] | 5 | 
VPYIL [Peptide 36013, V PYIL] | 37.8 | 
CDKPYIL [Peptide 36017, C DKPYIL] | 7.72 | 
EPYIL [Peptide 35999, E PYIL] | 102 | 
WDKPYIL [Peptide 36034, W DKPYIL] | 14.1 | 
QPYIL [Peptide 36009, Q PYIL] | 20.5 | 
RDKPYIL [Peptide 36030, R DKPYIL] | 4.68 | 
PPYIL [Peptide 36008, P PYIL] | 9.61 | 
TDKPYIL [Peptide 36032, T DKPYIL] | 5.61 | 
QDKPYIL [Peptide 36029, Q DKPYIL] | 4.97 | 
TPYIL [Peptide 36012, T PYIL] | 43.6 | 
NDKPYIL [Peptide 36027, N DKPYIL] | 5.92 | 
IPYIL [Peptide 36003, 1 PYIL] | 23.8 | 
WKPYIL [Peptide 35994, W KPYIL] | 5.58 | 
IDKPYIL [Peptide 36023, I DKPYIL] | 4.77 | 
FPYIL [Peptide 36000, F PYIL] | 19.5 | 
APYIL [Peptide 35996, A PYIL] | 11.8 | 
